Data: ChEMBL document CHEMBL1131172 (J Med Chem, 1998)

Columns and labels:
Type in all cases: functional
NCI-H23 [1] = experiment: inhibition of the growth of non-small-cell lung cancer (NCI-H23) cell line; details: Homo sapiens
SF-295 [2] = experiment: inhibition of the growth of CNS cancer(SF-295) cell line; details: Homo sapiens
IGROV-1 [3] = experiment: Inhibition of the growth of ovarian cancer(IGROVI) cell line at 0.01 uM; details: Homo sapiens
HCT-116 [4] = experiment: Inhibition of the growth of colon cancer(HCT116) cell line at 0.01 uM; details: Homo sapiens
CAKI-1 [5] = experiment: Inhibition of the growth of renal cancer(CAKI-1) cell line at 0.01 uM; details: Homo sapiens
SF-539 [6] = experiment: Inhibition of the growth of CNS cancer(SF-539) cell line at 0.01 uM; details: Homo sapiens
DU-145 [7] = experiment: inhibition of the growth of prostate cancer(DU-145) cell line; details: Homo sapiens
KM12 = experiment: inhibition of the growth of colon cancer(KM-12) cell line. value in parentheses is percent inhibition at 0.01 uM; details: Homo sapiens
MDA-N [8] = experiment: Inhibition of the growth of breast cancer(MDA-N) cell line at 0.01 uM; details: Homo sapiens
M14 [9] = experiment: Inhibition of the growth of melanoma cancer (M14) cell line at 0.01 uM; details: Homo sapiens
OVCAR-8 [10] = experiment: inhibition of the growth of ovarian cancer(OVCAR-8) cell line; details: Homo sapiens
NCI-H460 [11] = experiment: inhibition of the growth of non-small-cell lung cancer (NCI-H460) cell line; details: Homo sapiens
MDA-MB-435 [12] = experiment: Inhibition of the growth of breast cancer (MDA-MB-435) cell line at 0.01 uM; details: Homo sapiens
UO-31 [13] = experiment: inhibition of the growth of renal cancer(UO-31) cell line; details: Homo sapiens
786-0 [14] = experiment: Inhibition of the growth of renal cancer(786-0) cell line at 0.01 uM; details: Homo sapiens
OVCAR-8 [15] = experiment: Inhibition of the growth of ovarian cancer(OVCAR-8) cell line at 0.01 uM; details: Homo sapiens
RPMI-8226 [16] = experiment: Inhibition of the growth of leukemia (RPMI-8226) cell line at 0.01 uM; details: Homo sapiens
RPMI-8226 [17] = experiment: inhibition of the growth of leukemia (RPMI-8226) cell line; details: Homo sapiens
NCI-H23 [18] = experiment: Inhibition of the growth of non-small-cell lung cancer (NCI-H23) cell line at 0.01 uM; details: Homo sapiens
NCI-H460 [19] = experiment: Inhibition of the growth of non-small-cell lung cancer (NCI-H460) cell line at 0.01 uM; details: Homo sapiens
MOLT-4 = experiment: inhibition of the growth of leukemia (MOLT-4) cell line; details: Homo sapiens
NCI-H522 [20] = experiment: Inhibition of the growth of non-small-cell lung cancer (NCI-H522) cell line at 0.01 uM; details: Homo sapiens
SF-539 [21] = experiment: inhibition of the growth of CNS cancer(SF-539) cell line; details: Homo sapiens
DU-145 [22] = experiment: Inhibition of the growth of prostate cancer(DU-145) cell line at 0.01 uM; details: Homo sapiens
A549 [23] = experiment: Inhibition of the growth of non-small-cell lung cancer (A549/ATCC) cell line at 0.01 uM; details: Homo sapiens
MDA-MB-435 [24] = experiment: Inhibition of the growth of breast cancer (MDA-MB-435) cell line; details: Homo sapiens
SF-295 [25] = experiment: Inhibition of the growth of CNS cancer(SF-295) cell line at 0.01 uM; details: Homo sapiens
HCT-15 [26] = experiment: inhibition of the growth of colon cancer(HCT-15) cell line; details: Homo sapiens
SK-MEL-5 [27] = experiment: inhibition of the growth of melanoma cancer (SK-MEL-5) cell line; details: Homo sapiens
SNB-19 [28] = experiment: Inhibition of the growth of CNS cancer(SNB-19) cell line at 0.01 uM; details: Homo sapiens
NCI-H522 [29] = experiment: inhibition of the growth of non-small-cell lung cancer (NCI-H522) cell line; details: Homo sapiens
SF-268 [30] = experiment: Inhibition of the growth of CNS cancer(SF-268) cell line at 0.01 uM; details: Homo sapiens
MCF7 = experiment: inhibition of the growth of breast cancer (MCF-7) cell line; details: Homo sapiens
UO-31 [31] = experiment: Inhibition of the growth of renal cancer(UO-31) cell line at 0.01 uM; details: Homo sapiens
SR [32] = experiment: Inhibition of the growth of leukemia(SR) cell line at 0.01 uM; details: Homo sapiens
SF-268 [33] = experiment: inhibition of the growth of CNS cancer(SF-268) cell line; details: Homo sapiens
M14 [34] = experiment: inhibition of the growth of melanoma cancer (M14) cell line; details: Homo sapiens
HCT-15 [35] = experiment: Inhibition of the growth of colon cancer(HCT-15) cell line at 0.01 uM; details: Homo sapiens
A549 [36] = experiment: inhibition of the growth of non-small-cell lung cancer (A549/ATCC) cell line; details: Homo sapiens
IGROV-1 [37] = experiment: inhibition of the growth of ovarian cancer(IGROVI) cell line; details: Homo sapiens
NCI-H322M [38] = experiment: inhibition of the growth of non-small-cell lung cancer (NCI-H322M) cell line; details: Homo sapiens
NCI-H322M [39] = experiment: Inhibition of the growth of non-small-cell lung cancer (NCI-H322M) cell line at 0.01 uM; details: Homo sapiens
NCI/ADR-RES [40] = experiment: Inhibition of the growth of breast cancer (MCF7/ADR-RES) cell line at 0.01 uM; details: Homo sapiens
SNB-19 [41] = experiment: inhibition of the growth of CNS cancer(SNB-19) cell line; details: Homo sapiens
NCI/ADR-RES [42] = experiment: inhibition of the growth of breast cancer (MCF7/ADR-RES) cell line; details: Homo sapiens
786-0 [43] = experiment: inhibition of the growth of renal cancer(786-0) cell line; details: Homo sapiens
SK-MEL-5 [44] = experiment: Inhibition of the growth of melanoma cancer (SK-MEL-5) cell line at 0.01 uM; details: Homo sapiens
[45] = target: T1, Bifunctional dihydrofolate reductase-thymidylate synthase (Toxoplasma gondii, UniProt Q07422); experiment: Inhibitory activity against dihydrofolate reductase(DHFR) from Toxoplasma gondii
T1 sequence (Q07422 whole entry): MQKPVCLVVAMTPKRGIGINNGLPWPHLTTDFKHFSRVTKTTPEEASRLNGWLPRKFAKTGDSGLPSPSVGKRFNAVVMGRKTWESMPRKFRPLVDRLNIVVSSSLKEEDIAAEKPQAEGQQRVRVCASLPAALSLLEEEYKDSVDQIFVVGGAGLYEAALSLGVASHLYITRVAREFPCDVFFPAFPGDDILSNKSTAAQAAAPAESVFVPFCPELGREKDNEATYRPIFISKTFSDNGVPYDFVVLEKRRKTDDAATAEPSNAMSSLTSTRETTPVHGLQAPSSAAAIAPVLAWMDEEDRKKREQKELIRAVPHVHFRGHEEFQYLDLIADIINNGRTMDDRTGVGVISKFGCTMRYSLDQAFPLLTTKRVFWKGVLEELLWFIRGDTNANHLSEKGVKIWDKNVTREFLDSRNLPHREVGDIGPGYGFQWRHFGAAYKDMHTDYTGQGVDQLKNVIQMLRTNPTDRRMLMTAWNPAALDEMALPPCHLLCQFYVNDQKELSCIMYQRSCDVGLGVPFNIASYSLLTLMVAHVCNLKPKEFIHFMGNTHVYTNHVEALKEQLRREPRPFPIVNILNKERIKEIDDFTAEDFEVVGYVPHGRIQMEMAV

MDA-N [46] = experiment: inhibition of the growth of breast cancer(MDA-N) cell line; details: Homo sapiens
CAKI-1 [47] = experiment: inhibition of the growth of renal cancer(CAKI-1) cell line; details: Homo sapiens
HCT-116 [48] = experiment: inhibition of the growth of colon cancer(HCT116) cell line; details: Homo sapiens
SR [49] = experiment: inhibition of the growth of leukemia(SR) cell line; details: Homo sapiens
Dihydrofolate reductase = target: T2, Dihydrofolate reductase (Rattus norvegicus, UniProt Q920D2); experiment: Inhibitory activity against dihydrofolate reductase(DHFR) from rat liver
T2 sequence (Q920D2 whole entry): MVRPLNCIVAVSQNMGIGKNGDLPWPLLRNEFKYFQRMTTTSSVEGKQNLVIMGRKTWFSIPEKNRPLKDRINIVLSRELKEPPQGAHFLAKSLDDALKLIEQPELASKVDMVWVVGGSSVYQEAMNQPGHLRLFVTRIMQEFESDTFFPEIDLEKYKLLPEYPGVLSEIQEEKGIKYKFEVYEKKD

GI50 (NCI-H23 [1]): < 10 nM
GI50 (DU-145 [7]): < 10 nM
GI50 (OVCAR-8 [10]): < 10 nM
GI50 (NCI-H460 [11]): < 10 nM
GI50 (RPMI-8226 [17]): < 10 nM
GI50 (MOLT-4): 20 nM
GI50 (MDA-MB-435 [24]): < 10 nM
GI50 (HCT-15 [26]): < 10 nM
GI50 (SK-MEL-5 [27]): < 10 nM
GI50 (NCI-H522 [29]): < 10 nM
GI50 (MCF7): 30 nM
GI50 (A549 [36]): < 10 nM
GI50 (NCI-H322M [38]): < 10 nM
GI50 (786-0 [43]): < 10 nM
GI50 (HCT-116 [48]): < 10 nM
IC50 (Dihydrofolate reductase): 9.9 nM
SMILES: CN(c1ccc2ccccc2c1)c1ccc2nc(N)nc(N)c2n1
GI50 (SF-295 [2]): < 10 nM
inhibition at 0.01 µM (IGROV-1 [3]): 65%
inhibition at 0.01 µM (HCT-116 [4]): 85%
inhibition at 0.01 µM (CAKI-1 [5]): 74%
inhibition at 0.01 µM (SF-539 [6]): 66%
GI50 (KM12): 10 nM
inhibition at 0.01 µM (MDA-N [8]): 75%
inhibition at 0.01 µM (M14 [9]): 54%
inhibition at 0.01 µM (MDA-MB-435 [12]): 66%
GI50 (UO-31 [13]): < 10 nM
inhibition at 0.01 µM (786-0 [14]): 54%
inhibition at 0.01 µM (OVCAR-8 [15]): 95%
inhibition at 0.01 µM (RPMI-8226 [16]): 66%
inhibition at 0.01 µM (NCI-H23 [18]): 63%
inhibition at 0.01 µM (NCI-H460 [19]): 79%
inhibition at 0.01 µM (NCI-H522 [20]): 60%
GI50 (SF-539 [21]): < 10 nM
inhibition at 0.01 µM (DU-145 [22]): 51%
inhibition at 0.01 µM (A549 [23]): 65%
inhibition at 0.01 µM (SF-295 [25]): 63%
inhibition at 0.01 µM (SNB-19 [28]): 62%
inhibition at 0.01 µM (SF-268 [30]): 52%
inhibition at 0.01 µM (UO-31 [31]): 54%
inhibition at 0.01 µM (SR [32]): 57%
GI50 (SF-268 [33]): < 10 nM
GI50 (M14 [34]): < 10 nM
inhibition at 0.01 µM (HCT-15 [35]): 69%
GI50 (IGROV-1 [37]): < 10 nM
inhibition at 0.01 µM (NCI-H322M [39]): 56%
inhibition at 0.01 µM (NCI/ADR-RES [40]): 100%
GI50 (SNB-19 [41]): < 10 nM
GI50 (NCI/ADR-RES [42]): < 10 nM
inhibition at 0.01 µM (SK-MEL-5 [44]): 77%
IC50 [45]: 14.5 nM
GI50 (MDA-N [46]): < 10 nM
GI50 (CAKI-1 [47]): < 10 nM
GI50 (SR [49]): < 10 nM
